# Assay results from patent publication US7301070B2, “Plant fatty acid synthases and use in improved methods for production of medium-chain fatty acids” (Calgene LLC, priority 1997, dated 2007).
# Legend:
# Synthase II (KAS II) = details: higher concentrations than KAS I; cited from earlier work
# [1] = test system: fatty acid synthesis in Brassica seed extracts; assay: In vitro fatty acid synthesis assay in seed extracts preincubated with cerulenin; format: biochemical
# Experimental: (§1) Seed extracts were prepared from developing seeds of nontransgenic controls or transgenic Brassica expressing chKAS A-2-7 as described in Slabaugh et al. (Plant Journal, 1998 in press) and Leonard et al. (Plant Journal, 1998, in press). In vitro fatty acid synthesis assays were performed as described by Post-Beittenmiller (J. Biol. Chem. (1991), 266:1858-1865). Extracts were concentrated by ammonium sulfate precipitation and desalting using P-6 columns (Bio-Rad, Hercules, Calif.). Reactions (65 μl) contained 0.1M Tris/HCl (pH 8.0), 1 mM dithiothreitol, […] recombinant spinach ACP1, 1 mM NADH, 2 mM NADPH, 50 μM malonyl-CoA, 10 μM [1-^14C]acetyl-CoA (50 mCi/mmol), 1 mg/ml BSA, and 0.25 mg/ml seed protein. Selected seed extracts were preincubated with cerulenin at 23° C. for 10 min. Reaction products were separated on an 18% acrlamide gel containing 2.25M urea, electroblotted onto to nitrocellulose and quntitated by phosporimaging using Image QuaNT software (Molecular Dynamics, Sunnyvale, Calif.). Authentic acyl-ACPs were run in parallel, immunoblotted and finally detected by anti-ACP serum to confirm fatty acid chain lengths.
# Synthase III = details: cited from earlier work
# Ch KAS A-2-7 = assay: In vitro fatty acid synthesis assay, seed extracts of transgenic Brassica expressing chKAS A-2-7; format: biochemical, Cuphea hookeriana; details: conclusion from FIG. 22 data
# Experimental: as §1
# Synthase I (KAS I) = details: cited from earlier work
structure (smiles),measurement,setting,value
C/C=C/C/C=C/CCC(=O)[C@H]1O[C@H]1C(N)=O [cerulenin],concentration of cerulenin at which KAS II is inhibited,Synthase II (KAS II),50 µM
same,inhibition of extension of the spinach-ACP by cerulenin,[1]; seed extracts from transgenic lines compared with nontransgenic control Brassica,much less inhibited
same,synthesis of longer chain fatty acids after pretreatment of extracts with cerulenin,"[1]; transgenic (5401-9) and nontransgenic control seed extracts, preincubated at 23° C. for 10 min",markedly reduced
same,sensitivity of synthase III to cerulenin inhibition,Synthase III,insensitive to inhibition by cerulenin
same,sensitivity of chKAS A-2-7 to cerulenin,Ch KAS A-2-7,cerulenin-resistant
same,concentration of cerulenin at which KAS I is sensitive to inhibition,Synthase I (KAS I),1 µM
